Measured values taken from publication PMC12040169 (PLOS Biology, 2025).

assay: in vitro; settings: human, hela cells, % viability

| Structure (SMILES) | viability at 28.5 h, 10 µM |
| --- | --- |
| CCCNC(=O)C(C)Sc1nc2ccsc2c(=O)n1CC (centres unmarked) [CBK296745] | 105% |
| CCOC(=O)NC(=O)N1CCC(N2C(=O)OCC2(C)C)CC1 [CBK044179] | 90.5% |
| Cn1c(=O)c2c(nc(CN3CCN(c4ccccc4)CC3)n2Cc2ccccc2)n(C)c1=O [CBK269557] | 85.1% |
| CCOc1ccc(CSC2=NCCN2)cc1Cl [CBK027449C] | 92.4% |
| CC(=O)c1ccc(C)cc1OC(=O)C1CCCN(S(C)(=O)=O)C1 (centres unmarked) [CBK306140] | 115% |
| Nc1ccccc1Sc1cc(C(F)(F)F)ccn1 [CBK093761] | 91.4% |
| CC(C)(C)c1cc(CN(Cc2cc(C(C)(C)C)c(O)c(C(C)(C)C)c2)C2CCCCC2)cc(C(C)(C)C)c1O [CBK261996] | 106% |
| CC(C)OCC1CN(c2cc(CO)c(F)cn2)CCO1 (centres unmarked) [CBK304755] | 89.7% |
| Cc1onc(-c2ccccc2)c1CNC(=O)c1cscn1 [CBK144089] | 97.1% |
| CN(C)CC(=O)N1CN(C(=O)c2cccc(Br)c2)C(C)(C)C1 [CBK092206C] | 97.4% |
| Cc1cc(N(C)C)cc(C2CCCN(C(=O)C3CCC3)C2)n1 (centres unmarked) [CBK282004] | 88.7% |
| CC(C)(CO)CNc1cncc(-c2cc3ccccc3o2)n1 [CBK066029] | 91.1% |
| Cc1ccc(-c2nnc(CN3C(=O)C4(CC(=O)N(C)C4=O)c4cc(F)ccc43)o2)cc1 (centres unmarked) [CBK075453] | 110% |
| CN1C(=O)c2ccccc2C(=O)[C@@]2(C)CN(C3CCCC3)C[C@@H]12 [CBK283476] | 83.3% |
| O=S(=O)(c1ccc(Cl)cc1)c1ccc2ccnc(N3CCCNCC3)c2c1 [CBK036416C] | 82.9% |
| O=C(Cc1ccccc1)Nc1ccc(NC(=O)c2ccc(-c3ccccc3)cc2)cc1 [CBK268821] | 87.2% |
| COc1ccccc1-c1cnc(N)c(N2CCC(C(=O)O)CC2)n1 [CBK064082] | 96.1% |
| O=C(NC1CCCCC1)NC1CCN(Cc2nnnn2Cc2ccco2)CC1 [CBK085007] | 100% |
| Cn1cc(C2CCCCN2C(=O)c2cccc(C#N)c2)cn1 (centres unmarked) [CBK304611] | 87.9% |
| O=C(COc1ccc2ccccc2c1)Nc1ccc(Cl)cc1Cl [CBK263598] | 106% |
| CCN(CC(=O)N1CCN(C(=O)c2ccc(C)cc2)CC1)C(=O)OC [CBK027051] | 82% |
| O=c1cc(CO)oc(CN2CCCCCC2)c1O [CBK288363] | 97.7% |

| Structure (SMILES) | viability at 28.5 h, 10 µM |
| --- | --- |
| O=C(C1C2CCCCC21)N1CCC(c2nnc3n2CCCCC3)CC1 (centres unmarked) [CBK283351] | 95.2% |
| O=C(O)c1cccc(NC(=S)NC(=O)c2ccc(-c3ccc(Br)cc3)o2)c1 [CBK265014] | 95.6% |
| N#Cc1cc2c([nH]c1=S)CCN(Cc1ccccc1)C2 [CBK288378] | 90.3% |
| CSCCCNC(=O)N1CCN(CCN2CCOCC2)CC1 [CBK155669] | 90.9% |
| COc1cccc(NC(=O)c2cc(-c3ccc(C(=O)N4CCOCC4)cc3)cnc2N)c1 [CBK160203] | 89.4% |
| c1ccc2c(Sc3cc(N4CCCC4)ncn3)cccc2c1 [CBK089538] | 94.2% |
| CCOc1ccc(Cl)cc1S(=O)(=O)NCCO [CBK269996] | 94% |
| Cc1nn2c(COc3ccc(NC(=O)C4CCCCC4)cc3)nnc2c2ccccc12 [CBK268528] | 104% |
| CC(C)(C)OC(=O)N1CCN(CCOc2ccc(NC(=O)OCc3ccccc3)cc2F)CC1 [CBK016854] | 108% |
| CC(C)C(=O)Nc1ccc(-c2ccsc2)c2ccccc12 [CBK083758] | 92.7% |
| COc1cc(C(C)=O)ccc1OCCCN1CCC(O)(C(=O)c2ccc(F)cc2)CC1 [CBK025271C] | 85.8% |
| O=c1cc(CN2CCc3ccccc3C2)[nH]c(=O)[nH]1 [CBK126401] | 94% |
| O=C(CCOc1ccccc1)Nc1cc(N2CCNCC2)ncn1 [CBK004225T] | 98.6% |
| O=C(CNC(=O)c1ccccc1F)N/N=C/c1cccs1 [CBK261953] | 97.8% |
| O=C(Nc1cccc(NC(=S)NC(=O)c2ccc(Cl)cc2Cl)c1)c1ccccc1F [CBK264828] | 107% |
| CC(C)NC(=O)N1Cc2nc[nH]c2C[C@H]1c1nc(-c2ccc(F)c(Cl)c2)no1 [CBK288999] | 86.6% |
| O=C(NCCCN1CCOCC1)c1ccccc1Br [CBK262602C] | 106% |
| CCCN(C(=O)C1CC1)c1nc2c(s1)CCc1c-2cnn1C [CBK281930] | 88.8% |
| N/C(CC(=O)Nc1cc(Cl)cc(Cl)c1)=N\O [CBK228614] | 105% |
| Cc1cccc(NC(=S)N2CCN(Cc3ccc4c(c3)OCO4)CC2)c1C [CBK264919] | 82.7% |
| Cc1c(Cl)cccc1S(=O)(=O)N1CCCN(c2nc3ccc(Cl)cc3s2)CC1 [CBK014131] | 95.6% |
| Cc1ccc(N(CC(=O)Nc2cccnc2)S(=O)(=O)c2ccc(F)cc2)cc1 [CBK263332] | 93.8% |

| Structure (SMILES) | viability at 28.5 h, 10 µM |
| --- | --- |
| COCCn1c(CO)nnc1[C@H]1C[C@@H](NC(=O)c2ccc(C)s2)C1 [CBK307063] | 73.9% |
| O=C(O)CCc1ccc(-c2cc(N3CCN(c4ccccn4)CC3)ncn2)cc1 [CBK037821] | 105% |
| CCOC(=O)c1cnc2nc3ccccc3n2c1C [CBK270185] | 95.4% |
| Cc1ccc(N2CC(C(=O)Nc3ccc(S(=O)(=O)NCC4CCCO4)cc3)CC2=O)cc1 (centres unmarked) [CBK267532] | 91.7% |
| Cc1nc(-c2ccc(NCCc3nc(C4CC4)cs3)nc2)[nH]c(=O)c1C [CBK304424] | 108% |
| O=C(O)c1cccc(N(CCO)CCO)c1 [CBK262419] | 93.6% |
| CCc1ccc(C(=O)c2ccccc2C(=O)O)cc1 [CBK010776] | 93.7% |
| Cc1ccc(NS(=O)(=O)N(C)C)c(C)c1 [CBK005246] | 122% |
| COCCOCCCC(=O)OCC1Cc2cc(F)ccc2O1 (centres unmarked) [CBK304886] | 91.2% |
| CCCNC(=O)C1(Cc2ccccc2-c2cccs2)CCN(C(=O)c2ccccc2)CC1 [CBK285694] | 95% |
| CC(=O)Nc1ccc(-c2ccc(=O)n3c2[C@@H]2C[C@@H](CN(C4CCOCC4)C2)C3)cc1 [CBK289201] | 98% |
| c1cncc(COc2nccnc2OC2CCN(Cc3cccnc3)CC2)c1 [CBK083158] | 108% |
| CCc1cc(C(=O)N2CCC(Oc3ccccc3F)CC2)n(C)n1 [CBK282172] | 109% |
| NS(=O)(=O)c1ccc(/N=C/c2cccc(OCc3ccccc3)c2)cc1 [CBK261594] | 92.1% |
| CCC(CC)C(=O)N1CCCC1c1n[nH]cc1-c1ccncc1 (centres unmarked) [CBK283467] | 87.9% |
| Cc1cc(Cl)c(S(=O)(=O)NCc2ccccc2)cc1OCC(N)=O [CBK266588] | 104% |
| Cc1cc(NC(=O)c2cncnc2)c2ccccc2n1 [CBK122734] | 103% |
| CCn1c(C)cc2cc(NS(=O)(=O)c3ccc4[nH]c(=O)[nH]c(=O)c4c3)ccc21 [CBK286363] | 104% |
| CCC1CCCCN1C(=O)c1cc2ccccc2o1 (centres unmarked) [CBK078549] | 80.1% |
| Cc1ccc(S(=O)(=O)Oc2c(C=C3C(=O)CC(C)(C)CC3=O)[nH]c3ccccc23)cc1 [CBK263464] | 94.4% |
| O=c1c(Oc2ccc3ccccc3c2)c(C(F)(F)F)oc2c(CN3CCOCC3)c(O)ccc12 [CBK264487] | 103% |
| CCn1ncc(S(=O)(=O)N2CCCC(c3cccc(Cc4cccc(C)c4)n3)C2)c1C (centres unmarked) [CBK286244] | 97.7% |

| Structure (SMILES) | viability at 28.5 h, 10 µM |
| --- | --- |
| O=C(Nc1ccc(F)cc1)c1[nH]c2ccccc2c1NS(=O)(=O)c1ccc(Cl)c(Cl)c1Cl [CBK050091] | 86.7% |
| COc1ccccc1C(=O)Nc1ccc([C@@H](O)[C@H]2COCC(=O)N2)cc1 [CBK289688] | 97.3% |
| O=C(Nc1cc(N2CCNCC2)ncn1)c1cnc2ccccc2c1 [CBK004209T] | 80.5% |
| CN1CCN(CC(=O)Nc2cc(C(F)(F)F)ccc2Cl)C(C)(C)C1 [CBK306363] | 85.8% |
| Cc1cccnc1Nc1ccc(C2CCCN(C(=O)Cc3ccc4c(c3)CCCO4)C2)nc1 (centres unmarked) [CBK285969] | 89.8% |
| CC(=O)CCC(=O)N1CCN(C(=O)c2ccc(-c3ccc(S(C)(=O)=O)cc3)cn2)CC1 [CBK160484] | 105% |
| CCCCC(=O)NC(Nc1cc(C)ccn1)(C(F)(F)F)C(F)(F)F [CBK009331] | 79.6% |
| COc1nccnc1N1CCN(CCCC#N)CC1 [CBK084225] | 86.9% |
| CS(=O)(=O)N1CCC2(CC1)NC(=O)N(Cc1ccccc1)C2=O [CBK287656] | 100% |
| CCN1C(=O)CC2(C1=O)C(=O)N(CC)c1ccc(C)cc12 (centres unmarked) [CBK075140] | 99.4% |
| Cc1ccc2cc(CN(Cc3ccccc3)C(=O)NCc3c(Cl)cccc3Cl)c(=O)[nH]c2c1C [CBK132088] | 81.8% |
| CC(C)c1nc2c(c(=O)c3ccccc3n2C)c(=O)n1-c1ccccc1 [CBK287947] | 97.6% |
| Cc1ccccc1OCC(=O)NN1CCN(C)CC1 [CBK265783C] | 89% |
| Cc1nnnn1-c1ccc(CC(=O)N2CCc3sccc3C2c2ccccc2)cc1 (centres unmarked) [CBK285567] | 103% |
| O=C(O)CCC(=O)Nc1ccc(OC(F)F)cc1 [CBK264222] | 99.8% |
| CC1(C)CC(/N=C(\c2ccccc2)c2ccc(O)cc2O)CC(C)(C)N1 [CBK262004] | 101% |
| CCc1noc(C)c1C(=O)NC(C)c1cc2ccccc2o1 (centres unmarked) [CBK247065] | 87.1% |
| Cn1cc(N2CCN(C(=O)CCOc3ccccc3)CC2)cn1 [CBK305473] | 102% |
| CN(C)CCCNC(=O)c1ccc(/C=N/O)[n+](C)c1 [CBK278284I] | 88.8% |
| O=c1c2ccccc2nc(/C=C/c2cccnc2)n1Cc1ccccc1 [CBK265876] | 106% |
| Cc1c(F)cccc1CNC1CCC(NC(=O)OC(C)(C)C)CC1 (centres unmarked) [CBK056691] | 85% |
| CCNC(=O)Nc1c[nH]nc1C1CCCN(c2cccc(F)c2C#N)C1 (centres unmarked) [CBK306406] | 86.5% |

same assay, conditions: human, hela cells, % viability, bulk resorufin, single well

| Structure (SMILES) | viability at 28.5 h, 10 µM |
| --- | --- |
| N#CC1(c2ccccc2)CCN(C(=O)CCC(F)(F)F)CC1 [CBK091399] | 97.7% |
